{"source": "paper PMC11596392", "about": "“Enhanced Antibacterial, Anti-Inflammatory, and Antibiofilm Activities of Tryptophan-Substituted Peptides Derived from Cecropin A-Melittin Hybrid Peptide BP100” (Molecules, 2024)", "key": {"[1]": {"test_system": "preformed MDRPA (CCARM 2095) biofilms", "format": "cell-based, multidrug-resistant Pseudomonas aeruginosa", "details": "24 h treatment", "protocol": "While preventing biofilm formation on surfaces is crucial, treating established biofilm infections presents a significant challenge due to the extracellular polymeric substance (EPS) matrix hindering antibiotic penetration and the high cell density within mature biofilms. To address this challenge, we evaluated the ability of BP100 and its analogs to eradicate established MDRPA biofilms over a 24 h period. The minimum biofilm eradication concentration (MBEC90) was determined using crystal violet staining as the lowest concentration that reduced biomass by more than 90%. Among these peptides, BP5, BP6, BP7, BP8, BP9, BP11, and BP13 eradicated preformed MDRPA biofilms by more than 90% at a concentration of 8 μM (Figure 3c,d and Table 3).\nThe minimal biofilm eradication concentration (MBEC) for peptides against the multidrug-resistant Pseudomonas aeruginosa (MDRPA) (CCARM 2095) strain was assessed using the Calgary Biofilm Device (CBD), supplied by Innovotech, Edmonton, AB, Canada. A bacterial suspension with a density of (1 × 10^6) CFU/mL in (150 µL) of Luria–Bertani (LB) media was dispensed into each well of a 96-well microtiter plate, which was equipped with a peg lid (Innovotech, product code: 19111). This plate was incubated at 37 °C for 24 h with agitation at 110 rpm, promoting biofilm formation on the pegs. Subsequently, the peg lid was washed with phosphate-buffered saline (PBS, 0.01 M) and relocated to a fresh plate containing varying peptide concentrations (200 µL per well). The biofilms were then subjected to these peptides under the same incubation conditions. After another PBS rinse, the peg lid was moved to a recovery plate filled with (200 µL) of LB media per well. To detach the biofilms from the pegs, the recovery plate underwent sonication in a water bath for 10 to 15 min. Finally, the recovery plate was incubated at 37 °C for 24 h with agitation at 110 rpm, allowing any surviving bacteria to proliferate and cause turbidity. The MBEC is defined as the lowest concentration of peptides that inhibited turbidity formation in the recovery plate in comparison to sterility controls. This experiment was conducted in triplicate, and the median value from each trial was recorded."}, "[2]": {"test_system": "MDRPA (CCARM 2095) biofilm formation", "format": "cell-based, multidrug-resistant Pseudomonas aeruginosa", "details": "overnight 37 °C, crystal violet staining", "excerpt": "Bacterial biofilms, comprising communities of bacterial cells encased in a matrix of polysaccharides and nucleic acids, present a significant challenge for conventional antibiotics due to the protective nature of this matrix. Biofilms can enhance bacterial resistance to antibiotics by up to 1000-fold compared to planktonic bacteria. To address this issue, there is an urgent need to discover and develop novel alternative therapeutic agents capable of effectively combating biofilm-forming bacteria. […] Our research specifically focused on evaluating the impact of BP100 and its analogs on biofilm formation and eradication using multidrug-resistant Pseudomonas aeruginosa (MDRPA), a common pathogen responsible for biofilm-mediated nosocomial infections. The adhered biomass was quantified using crystal violet staining, and the minimum biofilm inhibitory concentration (MBIC90) was determined as the lowest concentration required to inhibit 90% of biofilm growth relative to the positive control. […] Human cathelicidin LL-37 is well-documented for its potent antibiofilm properties.\nThe inhibitory activity of the peptides on biofilm formation was evaluated against multidrug-resistant Pseudomonas aeruginosa (MDRPA) (CCARM 2095) using a biofilm inhibition assay to determine the minimal biofilm inhibitory concentration (MBIC). Peptide solutions were serially diluted in sterile water and aliquoted (100 μL) into a 96-well Costar polypropylene plate (Corning Inc., Corning, NY, USA). An equal volume of MDRPA suspension in Mueller–Hinton Broth (MHB), adjusted to 1 × 10^6 CFU/mL, was added to each well, resulting in a final inoculum density of 5 × 10^5 CFU/mL. Following overnight incubation at 37 °C, bacterial growth was quantified by measuring the optical density (OD) at 595 nm. Planktonic cells were then discarded, and the attached biofilms were washed thrice with distilled water. Residual biofilms were stained with 0.1% crystal violet for five minutes, washed to remove non-adherent dye, and subsequently destained using 95% ethanol. The OD at 595 nm was measured again to assess the biofilm mass. Control wells contained untreated bacteria. The MBIC was defined as the lowest peptide concentration that inhibited any residual crystal violet staining or biofilm formation. All assays were conducted in triplicate to ensure reproducibility. This method allows for the quantitative assessment of the peptides’ ability to prevent biofilm formation, a critical virulence factor in many bacterial infections, particularly those caused by multidrug-resistant strains."}, "bacterial strains": {"test_system": "bacterial strains", "assay": "Geometric mean (GM) of MIC values over the bacterial strains", "format": "cell-based", "details": "over the 11 bacterial strains of Table 2", "protocol": "The antibacterial efficacy of the synthesized peptides was evaluated by determining the minimal inhibitory concentrations (MICs) against six standard bacterial strains and five drug-resistant bacterial strains using the Clinical and Laboratory Standards Institute (CLSI) microdilution method. Melittin served as the positive control.\nThe minimal inhibitory concentrations (MICs) of the peptides against bacterial strains were determined using a modified broth-microdilution method in accordance with the National Committee for Clinical Laboratory Standards (NCCLS) guidelines. Overnight cultures were diluted in cation-adjusted Mueller–Hinton Broth (MHB) to achieve an inoculum density of 2 × 10^6 CFU/mL. A two-fold serial dilution of the peptide solution (100 μL) was introduced into microtiter plates, followed by the addition of 100 μL of bacterial suspension. The plates were then incubated at 37 °C for 24 h to determine the MICs. Wells containing only culture media served as negative controls, while those with added bacteria functioned as positive controls. The MIC, expressed in μM, was defined as the lowest peptide concentration that prevented visible bacterial growth. […]"}, "MDRPA (CCARM 2095)": {"test_system": "MDRPA (CCARM 2095)", "format": "cell-based, multidrug-resistant Pseudomonas aeruginosa", "details": "checkerboard, 37 °C, 24 h", "excerpt": "Multidrug-resistant pathogens pose a significant challenge to both human and animal health. The steady decline in the discovery of new antibiotics has exacerbated the difficulty in developing effective therapies for infection control. Consequently, there is an urgent need for alternative strategies that can combat pathogens without inducing drug resistance. One such strategy involves the combination of different antimicrobial agents. The effects of antimicrobial peptides (AMPs) combined with conventional antibiotics often surpass those of individual drugs. […] The primary advantage of synergistic combinations lies in their ability to lower the concentration of each antimicrobial agent required for effective antibacterial activity. This approach offers several benefits, including reduced production costs, a decreased risk of adverse side effects, diminished toxicity to mammalian cells, and a lower likelihood of drug resistance development. In light of these potential advantages, we investigated the synergistic effects of BP100 and the five selected analogs in combination with ciprofloxacin against multidrug-resistant Pseudomonas aeruginosa (MDRPA) using a checkerboard synergy assay. Ciprofloxacin, an antibiotic belonging to the fluoroquinolone class, is commonly used to treat various bacterial infections, including urinary tract infections and pneumonia. It exerts a bactericidal effect by inhibiting bacterial DNA gyrase, thereby disrupting DNA replication and transcription […]. The fractional inhibitory concentration index (FICI) results for BP100 and its selected analogs, when paired with ciprofloxacin against MDRPA, are detailed in Table 5. […] Such combinations may offer a valuable approach to enhancing the efficacy of existing antibiotics and potentially mitigating the development of antimicrobial resistance.\nThe synergistic effects of peptide-antibiotic combinations against methicillin-resistant Staphylococcus aureus (MRSA; CCARM 3089) and multidrug-resistant Pseudomonas aeruginosa (MDRPA; CCARM 2095) were evaluated using the fractional inhibitory concentration index (FICI) method. Antibiotics and peptides were subjected to two-fold serial dilutions, mixed in equal ratios, and combined with a bacterial suspension adjusted to approximately 10^6 CFU/mL. The resulting mixtures were distributed into microplate wells and incubated at 37 °C with orbital shaking at 200 rpm for 24 h. Bacterial growth was monitored by measuring the optical density at 600 nm (OD600). The FICI was calculated using the broth microdilution checkerboard method, defined as the sum of the ratios of the minimum inhibitory concentrations (MICs) of each agent in combination to their individual MICs, according to the following equation: FICI = (MIC of antibiotic in combination/MIC of antibiotic alone) + (MIC of peptide in combination/MIC of peptide alone). The interpretation of FICI values was as follows: FICI ≤ 0.5 indicates synergy; 0.5 < FICI ≤ 1.0 indicates an additive effect; 1.0 < FICI ≤ 4.0 indicates indifference; and FICI > 4.0 indicates antagonism."}}}
{"smiles": "CC[C@H](C)[C@H](NC(=O)[C@H](CCCCN)NC(=O)[C@H](CCC(=O)O)NC(=O)[C@H](CCCCN)NC(=O)[C@H](CO)NC(=O)[C@H](CCCCN)NC(=O)[C@H](CCCNC(=N)N)NC(=O)[C@H](Cc1ccccc1)NC(=O)[C@H](Cc1ccccc1)NC(=O)[C@H](CC(=O)O)NC(=O)CNC(=O)[C@H](CC(C)C)NC(=O)[C@@H](N)CC(C)C)C(=O)NCC(=O)N[C@@H](CCCCN)C(=O)N[C@@H](CCC(=O)O)C(=O)N[C@@H](Cc1ccccc1)C(=O)N[C@@H](CCCCN)C(=O)N[C@@H](CCCNC(=N)N)C(=O)N[C@H](C(=O)N[C@H](C(=O)N[C@@H](CCC(N)=O)C(=O)N[C@@H](CCCNC(=N)N)C(=O)N[C@H](C(=O)N[C@@H](CCCCN)C(=O)N[C@@H](CC(=O)O)C(=O)N[C@@H](Cc1ccccc1)C(=O)N[C@@H](CC(C)C)C(=O)N[C@@H](CCCNC(=N)N)C(=O)N[C@@H](CC(N)=O)C(=O)N[C@@H](CC(C)C)C(=O)N[C@H](C(=O)N1CCC[C@H]1C(=O)N[C@@H](CCCNC(=N)N)C(=O)N[C@H](C(=O)N[C@@H](CCC(=O)O)C(=O)N[C@@H](CO)C(=O)O)[C@@H](C)O)C(C)C)[C@@H](C)CC)C(C)C)[C@@H](C)CC", "note": "[LL-37, reference compound]", "values": [{"measurement": "MBEC50", "setting": "[1]; 50% eradication", "value": 32, "unit": "µM"}, {"measurement": "MBEC90", "setting": "[1]; 90% eradication", "value": "> 64", "unit": "µM"}, {"measurement": "MBIC50", "setting": "[2]; 50% inhibition", "value": "32 to 64", "unit": "µM"}, {"measurement": "MBIC90", "setting": "[2]; 90% inhibition", "value": 64, "unit": "µM"}]}
{"smiles": "CC[C@H](C)[C@H](NC(=O)CN)C(=O)NCC(=O)N[C@@H](C)C(=O)N[C@H](C(=O)N[C@@H](CC(C)C)C(=O)N[C@@H](CCCCN)C(=O)N[C@H](C(=O)N[C@@H](CC(C)C)C(=O)N[C@H](C(=O)N[C@H](C(=O)NCC(=O)N[C@@H](CC(C)C)C(=O)N1CCC[C@H]1C(=O)N[C@@H](C)C(=O)N[C@@H](CC(C)C)C(=O)N[C@H](C(=O)N[C@@H](CO)C(=O)N[C@@H](Cc1c[nH]c2ccccc12)C(=O)N[C@H](C(=O)N[C@@H](CCCCN)C(=O)N[C@@H](CCCNC(=N)N)C(=O)N[C@@H](CCCCN)C(=O)N[C@@H](CCCNC(=N)N)C(=O)N[C@@H](CCC(N)=O)C(=O)N[C@@H](CCC(N)=O)C(N)=O)[C@@H](C)CC)[C@@H](C)CC)[C@@H](C)O)[C@@H](C)O)C(C)C)C(C)C", "note": "[ME, melittin]", "values": [{"measurement": "GM (geometric mean of MIC values)", "setting": "bacterial strains", "value": 24.0, "unit": "µM"}]}
{"smiles": "O=C(O)c1cn(C2CC2)c2cc(N3CCNCC3)c(F)cc2c1=O", "note": "[ciprofloxacin, reference compound]", "values": [{"measurement": "MICB: MIC of ciprofloxacin alone", "setting": "MDRPA (CCARM 2095)", "value": 2048, "unit": "µg/mL"}]}
